Here are results for 6 compounds from ChEMBL document CHEMBL1201862, “PubChem BioAssay data set” (2004).

Test [1] addresses T1, Zinc finger protein mex-5 (Caenorhabditis elegans, UniProt Q9XUB2).
T1 sequence (Q9XUB2 whole entry): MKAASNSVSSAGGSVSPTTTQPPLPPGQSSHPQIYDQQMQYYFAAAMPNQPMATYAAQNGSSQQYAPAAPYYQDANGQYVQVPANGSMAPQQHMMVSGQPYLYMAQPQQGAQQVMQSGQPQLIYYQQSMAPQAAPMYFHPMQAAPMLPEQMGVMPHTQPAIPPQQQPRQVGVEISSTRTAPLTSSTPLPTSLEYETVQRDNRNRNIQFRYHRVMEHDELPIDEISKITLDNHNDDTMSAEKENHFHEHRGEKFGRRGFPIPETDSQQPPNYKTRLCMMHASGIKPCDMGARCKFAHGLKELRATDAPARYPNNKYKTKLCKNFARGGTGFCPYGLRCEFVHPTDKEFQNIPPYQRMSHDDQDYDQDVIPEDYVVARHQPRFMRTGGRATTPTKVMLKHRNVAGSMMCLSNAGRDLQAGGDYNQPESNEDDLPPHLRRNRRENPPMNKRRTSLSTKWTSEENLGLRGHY
As to the kind of experiment: potency of MEX-5 RNA-binding blockers – biochemical, C. elegans, fluorescence polarization, dose response (AID 1960).

The target in test [2] is T2, RNA-binding protein pos-1 (Caenorhabditis elegans, UniProt G5EF15).
T2 sequence (G5EF15 whole entry): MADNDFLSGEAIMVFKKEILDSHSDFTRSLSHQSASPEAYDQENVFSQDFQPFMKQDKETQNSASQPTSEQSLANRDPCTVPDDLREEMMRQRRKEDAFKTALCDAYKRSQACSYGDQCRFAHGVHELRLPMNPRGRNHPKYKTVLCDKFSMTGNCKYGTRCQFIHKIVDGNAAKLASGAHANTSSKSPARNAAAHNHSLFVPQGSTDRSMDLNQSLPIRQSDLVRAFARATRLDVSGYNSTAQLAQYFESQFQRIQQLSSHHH
The experiment in a line: disruptors of C. elegans POS-1 RNA interaction – biochemical, fluorescence polarization, dose response (AID 1964).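 Also: purified POS-1 fused to maltose binding protein made in E. coli; potency of compounds blocking POS-1 binding to fluorescent RNA.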

Test [3] concerns the target T3, Corticotropin-releasing factor receptor 2/Corticotropin-releasing factor-binding protein (Homo sapiens, UniProt P24387+Q13324).
T3 sequence (Q13324 whole entry): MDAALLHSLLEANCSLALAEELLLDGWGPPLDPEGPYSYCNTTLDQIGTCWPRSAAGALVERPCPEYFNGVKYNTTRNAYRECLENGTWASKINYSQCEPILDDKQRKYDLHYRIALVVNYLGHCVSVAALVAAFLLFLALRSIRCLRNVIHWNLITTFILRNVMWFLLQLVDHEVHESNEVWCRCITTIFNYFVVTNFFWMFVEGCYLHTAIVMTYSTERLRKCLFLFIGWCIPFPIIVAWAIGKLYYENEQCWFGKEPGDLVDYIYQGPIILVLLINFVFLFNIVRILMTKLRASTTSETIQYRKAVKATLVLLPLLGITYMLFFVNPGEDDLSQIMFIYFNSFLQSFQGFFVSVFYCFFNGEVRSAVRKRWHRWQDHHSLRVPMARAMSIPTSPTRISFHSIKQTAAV
T3 sequence (P24387 whole entry): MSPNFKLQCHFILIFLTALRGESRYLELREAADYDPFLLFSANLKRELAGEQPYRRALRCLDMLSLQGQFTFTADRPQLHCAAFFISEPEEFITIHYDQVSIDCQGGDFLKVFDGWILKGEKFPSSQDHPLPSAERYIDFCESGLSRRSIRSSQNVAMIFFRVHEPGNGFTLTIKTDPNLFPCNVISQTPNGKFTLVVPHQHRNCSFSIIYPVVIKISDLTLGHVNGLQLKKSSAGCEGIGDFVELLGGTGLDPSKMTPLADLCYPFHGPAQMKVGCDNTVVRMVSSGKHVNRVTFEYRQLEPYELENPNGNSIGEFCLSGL
The experiment in a line: Dose Response confirmation of uHTS hits for small molecule antagonists of the CRF-binding protein and CRF-R2 receptor complex. The settings on record: read-out: IC50_Mean. It is filed as functional.

Test [4] is described as follows: Luminescence-based cell-based high throughput dose response assay to identify activators of the DAF-12 from the parasite S. stercoralis (ssDAF-12). It is filed as functional.
The target in test [5] is T3, Corticotropin-releasing factor receptor 2/Corticotropin-releasing factor-binding protein. As to the kind of experiment: activators of CRF receptor 2 with binding protein – uHTS hits, confirmation (AID 602473). It is filed as functional. The settings on record: read-out: EC50_Mean.
The target of test [6] is T4, Oxysterols receptor LXR-beta (Homo sapiens, UniProt P55055).
T4 sequence (P55055 whole entry): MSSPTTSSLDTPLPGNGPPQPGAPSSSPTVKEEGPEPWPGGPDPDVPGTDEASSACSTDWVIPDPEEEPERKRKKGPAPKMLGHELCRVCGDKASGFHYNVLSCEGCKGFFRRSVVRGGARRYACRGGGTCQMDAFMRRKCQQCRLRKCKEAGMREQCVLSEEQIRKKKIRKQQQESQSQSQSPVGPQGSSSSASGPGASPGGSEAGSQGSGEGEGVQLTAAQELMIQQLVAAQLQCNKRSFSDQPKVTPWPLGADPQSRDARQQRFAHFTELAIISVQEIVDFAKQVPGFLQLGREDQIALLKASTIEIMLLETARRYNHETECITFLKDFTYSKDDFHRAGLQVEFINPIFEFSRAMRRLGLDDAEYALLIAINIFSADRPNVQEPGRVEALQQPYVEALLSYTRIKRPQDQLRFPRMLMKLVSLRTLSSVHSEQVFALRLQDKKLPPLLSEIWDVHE
The experiment in a line: LXR agonists, Gal4 luciferase reporter, dose response, counter-screen for ssDAF-12 agonist project, cell-based, luminescence, HEK293, S. stercoralis campaign (AID 720737). It is filed as functional. Particulars: read-out: IC50 (the source's name).

Test [7] can be described thus: Luminescence Cell-Based Dose Response to Identify Activators of 5'UTR Stem-Loop Driven Prion Protein mRNA Translation in H4-C Neuroglioblastoma Cells. [Related pubchem assays: 1829 (Project Summary), 1814 (Primary HTS)]. It is filed as functional.
Test [8] has as its system H4. As to the kind of experiment: Luminescence Cell-Based Dose Response HTS to Identify Activators of 5'UTR Stem-Loop Driven Prion Protein mRNA Translation in H4 Neuroglioblastoma Cells. [Related pubchem assays: 1829 (Project Summary), 1814 (Primary HTS)]. It counts as functional. The settings on record: Homo sapiens.
Test [9] in a line: NIH3T3 cell viability loss – ATP luminescence, mouse fibroblasts, counter-screen, dose response (AID 2010).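 Also: cells exposed to compound for about 90 hours before reading.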 It is filed as functional, cell-based.
A short description of test [10]: Luminescence Cell-Based Dose Response HTS to Identify Activators of Luciferase Translation or Activity in H4 […] Cells. [Related pubchem assays: 1829 (Project Summary), 1814 (Primary HTS)]. It is filed as functional.
Test [11] is described as follows: Luminescence Cell-Based Dose Confirmation HTS to Identify Activators of 5'UTR Stem-Loop Driven Alpha-Synuclein mRNA Translation in H4 Neuroglioblastoma Cells. [Related pubchem assays: 1829 (Project Summary), 1814 (Primary HTS)]. It is filed as functional.
Test [12] can be described thus: Trypanosoma cruzi growth suppression in host cells – NIH3T3 host cells, beta-gal luminescence, confirmation (AID 2044).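 Also: intracellular parasites grown in NIH/3T3 mouse fibroblasts as host cells; luminescent beta-galactosidase reporter signal from transgenic T. cruzi replicating inside host cells; inhibitors lower the luminescence signal.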 It counts as functional, cell-based.
A short description of test [13]: Luminescence Cell-Based Dose Response to Identify Activators of Luciferase Translation or Activity in H4-C Neuroglioblastoma Cells. [Related pubchem assays: 1829 (Project Summary), 1814 (Primary HTS)]. It is filed as functional.
Test [14] is described as follows: Luminescence Cell-Based Dose Confirmation to Identify Activators of 5'UTR Stem-Loop Driven Alpha-Synuclein mRNA Translation in H4 Neuroglioblastoma Cells. [Related pubchem assays: 1829 (Project Summary), 1814 (Primary HTS)]. It counts as functional.
Test [15] has as its target Paired box protein Pax-8 (Homo sapiens, UniProt Q06710). The experiment in a line: PAX8 transcriptional activity inhibition in RMG-I – RMG-I cells, luciferase, cherry-pick, dose response (AID 687027).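 Also: luciferase reporter driven by Pax8 target thyroperoxidase promoter measured by SteadyGlo luminescence.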 It is filed as functional, cell-based.
A short description of test [16]: inhibitors acting on PAX2 in cells – cell-based, plate reader, dry powder samples, selectivity assay for PAX8 inhibitor project, dose response (AID 743048).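 Also: HEK293 cells carrying a WT1 promoter luciferase reporter driven by expressed Pax2; potency is for inhibition of Pax2 driven reporter signal.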 It counts as functional.
The nature of test [17]: PAX8-dependent cell viability loss – plate reader, dry powder, dose response (AID 743049). It counts as functional, cell-based.
Test [18] can be described thus: COV434 cell viability loss – plate reader, dry powder, SA7, cytotoxicity control for PAX8 inhibitor project, dose response (AID 743145). It is filed as functional, cell-based.
Test [19] is described as follows: PAX5 cellular inhibition readout – cell-based, plate reader, dry powder samples, selectivity assay for PAX8 inhibitor project, dose response (AID 743047).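 Also: HEK293 cells carrying a Pax5 driven CD19 promoter luciferase reporter; potency of inhibitors that lower reporter luminescence.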 It is filed as functional.
Test [20] in a line: OV-90 cell viability loss – plate reader, dry powder, SA8, PAX8 inhibitor project, dose response (AID 743149). It is filed as functional, cell-based.
The nature of test [21]: OVCAR-3 cell viability loss – plate reader, dry powder samples, PAX8 inhibitor project, dose response (AID 743044). It is filed as functional, cell-based.
In test [22] the target is T5, Protein Tat (Human immunodeficiency virus type 1 group M subtype B (isolate HXB2)(HIV-1), UniProt P04608).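 Also: tat binding to TAR RNA read out by fluorescence polarization.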
T5 sequence (P04608 whole entry): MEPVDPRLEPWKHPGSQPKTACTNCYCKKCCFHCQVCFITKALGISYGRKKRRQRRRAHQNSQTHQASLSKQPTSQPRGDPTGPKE
It counts as functional.

Test [23] can be described thus: HIV-1 Vif–A3G interaction blockers – biochemical, TR-FRET, GST-Vif 1-94, biotin-A3G peptide, dose response retest, primary screen (AID 1117319).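 Also: TR-FRET signal of purified GST-Vif binding a biotinylated A3G peptide; inhibitors lower the FRET signal by blocking Vif and A3G binding.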 It counts as functional.

The source made the active and inactive calls.

Chain of Paired box protein Pax-8 (Q06710 whole entry): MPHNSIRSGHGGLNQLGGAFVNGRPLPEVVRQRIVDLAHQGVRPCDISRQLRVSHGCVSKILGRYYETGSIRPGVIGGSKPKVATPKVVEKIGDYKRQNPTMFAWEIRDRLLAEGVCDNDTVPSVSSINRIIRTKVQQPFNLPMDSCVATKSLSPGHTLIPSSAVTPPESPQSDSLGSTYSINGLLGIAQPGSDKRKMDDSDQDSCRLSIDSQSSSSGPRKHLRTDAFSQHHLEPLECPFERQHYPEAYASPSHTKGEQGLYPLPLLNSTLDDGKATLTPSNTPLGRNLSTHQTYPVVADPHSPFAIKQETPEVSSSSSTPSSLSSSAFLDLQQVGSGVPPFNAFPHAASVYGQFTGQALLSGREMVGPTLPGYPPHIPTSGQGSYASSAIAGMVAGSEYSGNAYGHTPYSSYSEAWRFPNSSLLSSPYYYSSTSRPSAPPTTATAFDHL

In the case of `CCCn1nc(C(=O)Nc2ccc3nc(C)sc3c2)c2ccccc2c1=O`, the EC50 in [1] is > 300 µM (not active); in test [2], > 300 µM (not active); in test [5], > 53 µM (inactive); in test [6], > 67.5 µM (inactive). Further, the IC50 in [3] was > 47.1 µM (inactive); in test [4] it was > 67.5 µM (inactive).

With `CCC(=O)Nc1ccc(C(=O)OCc2ccccc2Cl)cc1`, the EC50 is 8.13 µM (active) in [7]; 11.7 µM (active) in test [8]; > 60 µM (not active) in test [9]; 37.7 µM (active) in test [10]; < 0.1 µM (active) in test [11]; 0.815 µM (active) in test [12]. The EC50 in test [13] is 0.614 µM (active); in test [14], 0.976 µM (active).

For `Cc1ccc(S(=O)(=O)Nc2ccc3c(c2)nc(CCN2CCCC2)n3C)cc1`, the half-maximal activity concentration (AC50) in test [15] is 5.89 µM (active); in [16] it was > 100 µM (inactive); in test [17], 50.6 µM (active); in test [18] it was 26.4 µM (active); in test [19], > 100 µM (inactive); in [20], 45.2 µM (active). Also, the AC50 in [21] was 34.1 µM (active).

With `Cc1ccn2cc(CNS(=O)(=O)c3ccc(Cl)s3)nc2c1`, the IC50 in test [22] and in test [23] was > 100 µM (active) in each case.

Turning to `O=C(Nc1ccccc1C(=O)NC(Cc1c[nH]c2ccccc12)C(=O)O)c1ccco1` (stereo not given), the IC50 in test [22] was > 100 µM (active).

In the case of `O=C(/C=C/c1ccco1)NC1=NCCS1`, the EC50 in test [7] was 0.519 µM (active); in [8], < 0.1 µM (active); in test [10], 0.484 µM (active); in test [11], < 0.1 µM (active); in [13], 0.323 µM (active); in test [14], 0.428 µM (active).
